Results taken from ChEMBL document CHEMBL1144154, “7-[1H-Indol-2-yl]-2,3-dihydro-isoindol-1-ones as dual Aurora-A/VEGF-R2 kinase inhibitors: design, synthesis, and biological activity” (Bioorg Med Chem Lett, 2008).
Active and inactive are the calls of the source. No cut-off for these calls is given here.

Tests used:
[1] = target: T1, Aurora kinase A (Homo sapiens) (UniProt O14965); test: Inhibition of Aurora A at 100 uM
T1 sequence (whole entry): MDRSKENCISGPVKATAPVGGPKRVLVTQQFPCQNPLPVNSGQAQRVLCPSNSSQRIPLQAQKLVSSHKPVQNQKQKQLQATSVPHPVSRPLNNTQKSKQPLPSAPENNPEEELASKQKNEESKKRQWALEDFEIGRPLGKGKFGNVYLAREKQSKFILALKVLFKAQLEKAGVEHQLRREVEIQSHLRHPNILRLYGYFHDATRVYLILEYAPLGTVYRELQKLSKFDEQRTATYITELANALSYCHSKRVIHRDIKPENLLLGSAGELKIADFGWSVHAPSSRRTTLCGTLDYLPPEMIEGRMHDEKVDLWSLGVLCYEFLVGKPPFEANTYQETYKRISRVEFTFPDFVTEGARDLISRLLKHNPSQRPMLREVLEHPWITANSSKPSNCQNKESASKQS

[2] = target: T2, Vascular endothelial growth factor receptor 2 (Homo sapiens, UniProt P35968); test: Inhibition of VEGFR2 at 0.1 uM
T2 sequence (P35968 whole entry): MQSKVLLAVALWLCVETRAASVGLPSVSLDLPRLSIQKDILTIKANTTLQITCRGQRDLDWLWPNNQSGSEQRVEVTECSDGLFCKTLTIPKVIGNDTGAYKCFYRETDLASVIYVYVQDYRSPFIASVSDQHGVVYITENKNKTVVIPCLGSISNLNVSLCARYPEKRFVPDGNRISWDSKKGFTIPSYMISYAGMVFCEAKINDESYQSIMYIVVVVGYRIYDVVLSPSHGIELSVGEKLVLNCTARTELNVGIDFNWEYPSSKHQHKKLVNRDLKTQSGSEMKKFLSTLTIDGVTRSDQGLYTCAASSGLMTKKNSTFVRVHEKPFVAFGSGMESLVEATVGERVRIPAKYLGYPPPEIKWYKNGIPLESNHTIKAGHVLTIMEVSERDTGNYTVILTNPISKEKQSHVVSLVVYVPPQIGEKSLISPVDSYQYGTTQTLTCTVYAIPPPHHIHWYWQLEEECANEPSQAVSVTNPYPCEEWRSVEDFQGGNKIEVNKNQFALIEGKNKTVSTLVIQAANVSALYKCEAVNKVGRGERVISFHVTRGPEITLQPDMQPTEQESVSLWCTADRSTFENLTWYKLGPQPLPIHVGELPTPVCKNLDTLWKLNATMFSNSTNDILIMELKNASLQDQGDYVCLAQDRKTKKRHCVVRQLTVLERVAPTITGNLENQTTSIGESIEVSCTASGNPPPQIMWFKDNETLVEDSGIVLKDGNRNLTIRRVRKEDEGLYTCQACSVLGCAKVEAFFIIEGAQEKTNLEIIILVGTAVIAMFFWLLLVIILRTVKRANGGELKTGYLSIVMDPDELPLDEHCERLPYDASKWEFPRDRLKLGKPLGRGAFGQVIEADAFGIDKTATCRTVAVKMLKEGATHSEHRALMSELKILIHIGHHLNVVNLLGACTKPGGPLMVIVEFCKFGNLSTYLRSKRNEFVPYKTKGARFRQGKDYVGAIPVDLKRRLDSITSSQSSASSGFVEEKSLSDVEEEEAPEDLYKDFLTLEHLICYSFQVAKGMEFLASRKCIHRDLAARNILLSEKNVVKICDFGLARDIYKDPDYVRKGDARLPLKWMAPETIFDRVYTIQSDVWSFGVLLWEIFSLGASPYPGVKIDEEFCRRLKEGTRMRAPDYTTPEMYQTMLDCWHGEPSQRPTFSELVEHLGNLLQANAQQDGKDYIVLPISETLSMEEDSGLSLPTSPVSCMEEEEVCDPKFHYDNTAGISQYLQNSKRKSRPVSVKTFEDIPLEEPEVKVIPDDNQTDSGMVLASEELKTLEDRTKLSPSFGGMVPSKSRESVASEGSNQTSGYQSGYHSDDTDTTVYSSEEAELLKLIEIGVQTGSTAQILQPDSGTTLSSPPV

[3] = target: T2, Vascular endothelial growth factor receptor 2; test: Inhibition of VEGFR2
Aurora kinase A = target: T3, Aurora kinase A (Homo sapiens, UniProt O14965); test: Inhibition of Aurora A
T3 sequence (O14965 whole entry): T1 sequence (whole entry)

[4] = target: T4, Cyclin-dependent kinase 1 (Homo sapiens, UniProt P06493); test: Inhibition of CDK1
Target sequence in this assay (P06493 whole entry): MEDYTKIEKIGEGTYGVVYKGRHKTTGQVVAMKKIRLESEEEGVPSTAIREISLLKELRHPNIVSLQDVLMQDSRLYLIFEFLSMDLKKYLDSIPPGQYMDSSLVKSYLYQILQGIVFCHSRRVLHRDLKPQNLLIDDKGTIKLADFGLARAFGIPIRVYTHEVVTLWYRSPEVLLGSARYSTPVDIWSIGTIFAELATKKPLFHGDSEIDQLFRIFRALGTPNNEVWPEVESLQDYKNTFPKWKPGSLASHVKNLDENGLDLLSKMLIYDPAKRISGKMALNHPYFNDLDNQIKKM

[5] = target: T2, Vascular endothelial growth factor receptor 2; test: Inhibition of VEGFR2 at 100 uM
[6] = target: T4, Cyclin-dependent kinase 1; test: Inhibition of CDK1 at 100 uM
Target sequence in this assay (P06493 whole entry, looked up): as the sequence (P06493 whole entry) above

A-375 = test: Antitumor activity in human A375 cells […] nude mouse assessed as inhibition of tumor growth at 100 mg/kg, ip relative to control; format: functional; design: scale not given: the % may be the effect or the level left; conditions: route intraperitoneal
[7] = Oral bioavailability in rat at 10 mg/kg; format: ADME, organism-based; conditions: in vivo
[8] = Cmax in rat at 10 mg/kg, po; format: ADME, organism-based; design: dose 10 mg/kg, route oral; conditions: in vivo
[9] = Half life in rat at 10 mg/kg, po; format: ADME, organism-based; design: dose 10 mg/kg, route oral; conditions: in vivo
[10] = Drug concentration in nude mouse plasma at 10 mg/kg after 0.5 hrs; format: ADME, organism-based; design: dose 10 mg/kg
[11] = Drug concentration in nude mouse plasma at 10 mg/kg after 1 hr; format: ADME, organism-based; design: dose 10 mg/kg
[12] = Drug concentration in nude mouse plasma at 10 mg/kg after 2 hrs; format: ADME, organism-based; design: dose 10 mg/kg
[13] = Drug concentration in nude mouse plasma at 10 mg/kg after 4 hrs; format: ADME, organism-based; design: dose 10 mg/kg
HeLa = test: Induction of polyploidy in human HeLa cells assessed as increase in cells with >4N DNA content at 2.5 uM after 72 hrs by FACS analysis

Row | Compound | IC50 [3] | IC50 (Aurora kinase A) | IC50 [4] | further results
1 | COc1ccc2[nH]c(-c3cccc4c3C(=O)NC4=O)cc2c1 |  |  |  | inhibition [1]: 30%; inhibition [2]: 35%
2 | CC(C)(C)OC(=O)n1cccc1-c1cccc2c1C(=O)NC2 |  |  |  | inhibition [5]: 46%; inhibition [1]: 25%; inhibition [6]: < 10%
3 | COC(=O)c1cccc2c1C(=O)NC2 | > 100000 nM | > 100000 nM |  | 
4 | O=C1NCc2cccc(-c3cc4cc(O)ccc4[nH]3)c21 | 119 nM | 90 nM | 13300 nM | 
5 | O=C1NCc2cccc(-c3c[nH]c4ccccc34)c21 |  |  |  | inhibition [5]: 50%; inhibition [1]: 60%
6 | CN1Cc2cccc(-c3ccc[nH]3)c2C1=O |  |  |  | inhibition [5]: < 10%; inhibition [1]: 37%; inhibition [6]: 24%
7 | CCN1CCN(CCCOc2ccc3[nH]c(-c4cccc5c4C(=O)NC5)cc3c2)CC1 | 14 nM | 44 nM | > 100000 nM | 
8 | NC(=O)c1cccc2c1C(=O)NC2 | > 100000 nM | 14300 nM |  | 
9 | O=C1NCc2cccc(-c3ccc[nH]3)c21 | 1100 nM | 338 nM |  | inhibition [6]: 63%
10 | COc1ccc2[nH]c(-c3cccc4c3C(=O)NC4)nc2c1 | 142 nM | 205 nM |  | 
11 | O=C1NCc2cccc(-c3cc4cc(OCCCN5CCC(O)CC5)ccc4[nH]3)c21 | 18 nM | 61 nM | > 100000 nM | 
12 | O=C1NCc2cccc(-c3cc4cc(OCCN5CCCCC5)ccc4[nH]3)c21 | 56 nM | 200 nM | > 100000 nM | Activity (A-375): 46%; bioavailability [7]: 20%; Cmax [8]: 391 ng/mL; half-life [9]: 54 min; concentration at 0.5 h [10]: 154 ng/mL; concentration at 1 h [11]: 160 ng/mL; concentration at 2 h [12]: 41 ng/mL; concentration at 4 h [13]: 12 ng/mL; Activity (HeLa): Active
13 | CN1Cc2cccc(-c3cccn3C(=O)OC(C)(C)C)c2C1=O | > 100000 nM | > 100000 nM | > 100000 nM | 
14 | COc1ccc(NC(=O)c2cccc3c2C(=O)NC3)cc1 | 5940 nM |  |  | inhibition [1]: 45%

Second part, led by results:

Row | IC50 [3] | IC50 (Aurora kinase A) | IC50 [4] | Compound | further results
15 | 11300 nM | 21200 nM | > 100000 nM | O=C1NCc2cccc(-c3cc4cc(OCc5ccccc5)ccc4[nH]3)c21 | 
16 | 65 nM | 179 nM | > 100000 nM | O=C1NCc2cccc(-c3cc4cc(OCCCN5CCCCC5)ccc4[nH]3)c21 | 
17 | 144 nM | 100 nM | > 100000 nM | O=C1NCc2cccc(-c3cc4ccccc4[nH]3)c21 | 
18 | 30 nM | 100 nM | > 100000 nM | O=C1NCc2cccc(-c3cc4cc(OCCCO)ccc4[nH]3)c21 | 
19 | > 100000 nM | > 100000 nM |  | O=C(O)c1cccc2c1C(=O)NC2 | 
20 | 74 nM | 135 nM | > 100000 nM | O=C1NCc2cccc(-c3cc4cc(OCCN5CCOCC5)ccc4[nH]3)c21 | 
